Columns and labels:
[1] = system: Tyromyces palustris; test: Test for wood rotting-preventing effect (mycelium growth inhibition on malt extract agar); format: cell-based; settings: 28° C.±2° C., 2 to 10 days, read-out: Rotting preventing effect (mycelium growth-inhibitory rate), TYP
Summary of the method: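 Mycelial agar disks (4 mm) were placed on malt extract agar containing test compound at 50 ppm and grown at 28° C.±2° C. Colony diameter was measured 2-10 days after inoculation and converted to percent mycelium growth inhibition, reported as symbol grades.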

[2] = system: Aspergillus fumigatus TIMM 0063; test: In vitro antimycotic activity on Aspergillus fumigatus; format: cell-based; settings: TIMM0063, 10 (ppm), Casitone agar, 37° C., 48 hours, read-out: Antimycotic activity (growth inhibitory rate), A.fumigatus
Experimental: 3-2 In vitro antimycotic activity on Aspergillus fumigatus.
To Aspergillus fumigatus TIMM 0063 precultured at 37° C. for 48 hours on a potato dextrose agar (PDA) slant medium was added a sterilized physiological salt solution containing 0.1%(W/V) Tween 80. After conidia were made free from the solution, the solution was filtered through a sterilized two-sheet gauze to remove the mycelium mass. The number of the conidia in the resulting suspension was counted with a globulimeter and adjusted so as to be 1×10^5 conidia/ml with a sterilized physiological salt solution containing 0.1%(W/V) Tween 80. This solution was used as an inoculum solution. Casitone agar plate medium containing the DMSO solution of the test compound in a rate of 1% (V/V) was inoculated with the inoculum solution at four places thereof with a microplanter, and cultured with the medium allowed to stand at 37° C. for 48 hours. After culture, the diameter of the mycelium disks cultivated at the four inoculated parts was measured, and its mean value was obtained. The growth inhibitory rate was calculated according to the following equation, and the antimycotic activity was shown in the same manner as in Test Example 3-1.
Growth inhibitory rate (%)=(1-W'/Y')×100
Y': Diameter of mycelium disk of DMSO control group
W': Diameter of mycelium disk of test compound group

[3] = system: Pseudoperonospora cubensis; test: Test for controlling effect on downy mildew of cucumber; format: in vivo; settings: 168 h, 200 ppm spray, one day before inoculation, cucumber 2-leaf stage, read-out: Controlling effect (control of disease), Downy mildew of cucumber
Experimental: 2-2 Test for controlling effect on downy mildew of cucumber (Pseudoperonospora cubensis) A test compound adjusted to 200 ppm was sprayed onto cucumber at the 2-leaf stage cultivated in pots. After one day, the cucumber was inoculated by spraying the zoospore suspension of Pseudoperonospora cubensis. After inoculation, the cucumber was placed in a 25° C.-humid room for 1 day and then in a greenhouse for 6 days. Thus, the cucumber was made to be infected with downy mildew. The control of disease of the test compound is calculated by comparing the degree of infection of each leaf with that in the untreated plot. The control of disease is shown as a controlling effect in the same manner as in Test Example 2-1.

[4] = system: Gibberella fujikuroi ("Bakanae" disease of rice); test: Test for rice seed-disinfecting effect; format: in vivo; settings: Fusarium fujikuroi, 504 h, seed immersion 25° C. 24 hours, three weeks after treatment, read-out: Controlling effect (control of disease), "Bakanae" disease of rice
Experimental: 2-1 Test for rice seed-disinfecting effect
Unhulled rice infected with Gibberella fujikuroi ("Bakanae" disease of rice) was immersed in a test compound adjusted to 1000 ppm at 25° C. for 24 hours. Water was lightly swished off the seed, which was then sowed and germinated for two days. Three weeks after treatment with the solution containing the compound, the rate of the infected seedlings was examined, and the control of disease was calculated by comparison with that of the untreated plot. The control of disease was shown as a controlling effect on the basis of the following standard.

`CSc1snc(OCC#CI)c1C#N` [Compound 1, 3-(3-iodo-2-propynyloxy)-4-cyano-5-methylthioisothiazole] gave an inhibition at 50 ppm [1] of 95 to 100%, an inhibition of growth at 10 µg/mL [2] of 100% and a pest or weed control at 200 ppm [3] of 95 to 100%. It also gave a pest or weed control at 1000 ppm [4] of 95 to 100%.
Compound `N#Cc1c(OCC#CI)nsc1SC(F)F` [Compound 12, 3-(3-iodo-2-propynyloxy)-4-cyano-5-difluoromethylthioisothiazole] has an inhibition at 50 ppm [1] of 95 to 100%, an inhibition of growth at 10 µg/mL [2] of 100% and a pest or weed control at 200 ppm [3] of 95 to 100%. The pest or weed control at 1000 ppm [4] was 95 to 100%.
Compound `COc1snc(OCC#CI)c1C#N` [Compound 21, 3-(3-iodo-2-propynyloxy)-4-cyano-5-methoxyisothiazole] has an inhibition at 50 ppm [1] of 95 to 100%, an inhibition of growth at 10 µg/mL [2] of 100% and a pest or weed control at 200 ppm [3] of 95 to 100%. It also gave a pest or weed control at 1000 ppm [4] of 95 to 100%.
For `CC(C)Oc1snc(OCC#CI)c1C#N` [Compound 23], the inhibition at 50 ppm [1] was 95 to 100%, the inhibition of growth at 10 µg/mL [2] was 100% and the pest or weed control at 200 ppm [3] was 95 to 100%. It also gave a pest or weed control at 1000 ppm [4] of 95 to 100%.
`CN(C)c1snc(OCC#CI)c1C#N` [Compound 30, 3-(3-iodo-2-propynyloxy)-4-cyano-5-dimethylaminoisothiazole] showed an inhibition at 50 ppm [1] of 95 to 100%, an inhibition of growth at 10 µg/mL [2] of 100% and a pest or weed control at 200 ppm [3] of 95 to 100%. The pest or weed control at 1000 ppm [4] was 95 to 100%.
`CS(=O)(=O)c1snc(OCC#CI)c1C#N` [Compound 41, 3-(3-iodo-2-propynyloxy)-4-cyano-5-methylsulfonylisothiazole] gave an inhibition at 50 ppm [1] of 95 to 100%, an inhibition of growth at 10 µg/mL [2] of 100% and a pest or weed control at 200 ppm [3] of 95 to 100%. For the same compound, the pest or weed control at 1000 ppm [4] was 95 to 100%.
In the case of `N#Cc1c(OCC#CI)nsc1S(=O)(=O)C(F)F` [Compound 43], the inhibition at 50 ppm [1] is reported as 95 to 100%, the inhibition of growth at 10 µg/mL [2] is reported as 100% and the pest or weed control at 200 ppm [3] is reported as 95 to 100%. For the same compound, the pest or weed control at 1000 ppm [4] was 95 to 100%.
In the case of `COc1nsc(OCC#CI)c1C#N` [Compound 48], the inhibition at 50 ppm [1] is reported as 95 to 100%, the inhibition of growth at 10 µg/mL [2] is reported as 100% and the pest or weed control at 200 ppm [3] is reported as 95 to 100%. For the same compound, the pest or weed control at 1000 ppm [4] was 95 to 100%.
`CCOc1nsc(SCOCC#CI)c1C#N` [Compound 54] showed an inhibition at 50 ppm [1] of 95 to 100%, an inhibition of growth at 10 µg/mL [2] of 100% and a pest or weed control at 200 ppm [3] of 95 to 100%. It also gave a pest or weed control at 1000 ppm [4] of 95 to 100%.
With `N#Cc1c(OC(F)F)nsc1SCOCC#CI` [Compound 60] the inhibition at 50 ppm [1] was 95 to 100%, the inhibition of growth at 10 µg/mL [2] was 100% and the pest or weed control at 200 ppm [3] was 95 to 100%. It also gave a pest or weed control at 1000 ppm [4] of 95 to 100%.
Work on `CSc1snc(OCCC#CI)c1C#N` [Compound 70] yielded an inhibition at 50 ppm [1] of 95 to 100%, an inhibition of growth at 10 µg/mL [2] of 100% and a pest or weed control at 200 ppm [3] of 80 to 94%. The pest or weed control at 1000 ppm [4] was 80 to 94%.
Compound `N#Cc1c(OC(F)F)nsc1OCCC#CI` [Compound 82] has an inhibition at 50 ppm [1] of 95 to 100%, an inhibition of growth at 10 µg/mL [2] of 100% and a pest or weed control at 200 ppm [3] of 95 to 100%. It also gave a pest or weed control at 1000 ppm [4] of 95 to 100%.
Compound `N#Cc1c(OCOCC#CI)nsc1SC(F)F` [Compound 90] has an inhibition at 50 ppm [1] of 95 to 100%, an inhibition of growth at 10 µg/mL [2] of 100% and a pest or weed control at 200 ppm [3] of 95 to 100%. For the same compound, the pest or weed control at 1000 ppm [4] was 95 to 100%.
In the case of `CCOc1snc(OCOCC#CI)c1C#N` [Compound 96], the inhibition at 50 ppm [1] is reported as 95 to 100%, the inhibition of growth at 10 µg/mL [2] is reported as 100% and the pest or weed control at 200 ppm [3] is reported as 95 to 100%. It also gave a pest or weed control at 1000 ppm [4] of 95 to 100%.
Work on `CSc1snc(OC(C)OCC#CI)c1C#N` (stereo not shown) [Compound 119] yielded an inhibition at 50 ppm [1] of 95 to 100%, an inhibition of growth at 10 µg/mL [2] of 100% and a pest or weed control at 200 ppm [3] of 95 to 100%. The pest or weed control at 1000 ppm [4] was 95 to 100%.
With `CSc1nsc(SCOCC#CI)c1C#N` [Compound 136] the inhibition at 50 ppm [1] was 95 to 100%, the inhibition of growth at 10 µg/mL [2] was 100% and the pest or weed control at 200 ppm [3] was 95 to 100%. The pest or weed control at 1000 ppm [4] was 80 to 94%.

Reference: patent US5578622A, “Isothiazole derivatives and their uses” (Asamura Patent Office, priority 1994, dated 1996)
